Laboratory results from patent US20190375708A1 (VenatoRx Pharmaceuticals, Inc., priority 2018, published 2019).

Assays:
[1] = tested on: HBV replication in HepAD38 cells; experiment: Anti-HBV replication assay in HepAD38 cells (QPCR of extracellular HBV DNA); format: cell-based, HBV (genotype D, serotype ayw); details: Hepatitis B virus, 168 h, 7 days incubation, extracellular HBV DNA by QPCR, read-out: Anti-HBV EC50
How it was run: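 HepAD38 cells (HepG2 carrying tet-repressible HBV genotype D genome) induced by tetracycline withdrawal, treated 7 days at 37 °C with compound ([…], 1-log10 dilutions). Extracellular HBV DNA quantified by QPCR against a standard curve, normalised to DMSO; EC50 from 4-parameter fit.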

[2] = In vitro cytotoxicity assay (MTT cell viability) in HepG2 cells; format: cell-based, human; details: human
How it was run: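 CC50 values reflect loss of HepG2 viability after a 7-day exposure at 37 °C, 5% CO2. After 3-4 h with MTT, solubilized formazan was quantified at 492 nm relative to vehicle wells.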

SMILES	EC50 [1]	CC50 at 7 days [2]
Cc1cc(NC(=O)c2c(C)c(C(=O)C(=O)Nc3ccc(B(O)O)cc3)n(C)c2C)ccc1F [Example 255, (4-(2-(4-((4-fluoro-3-methylphenyl)carbamoyl)-1,3,5-trimethyl-1H-pyrrol-2-yl)-2-oxoacetamido)phenyl)boronic acid]	< 50 nM	5 to 30 µM
Cc1c(C(=O)NC2CCC(F)(F)C2)c2n(c1C(=O)C(=O)NC(C)(C)CO)CCCC2 (stereo not shown) [Example 752, N-(3,3-difluorocyclopentyl)-3-(2-((1-hydroxy-2-methylpropan-2-yl)amino)-2-oxoacetyl)-2-methyl-5,6,7,8-tetrahydroindolizine-1-carboxamide]	50 to 499 nM	> 30 µM
Cc1cc(NC(=O)c2c(C)c(C(=O)C(=O)NC34CC5CC(CC(O)(C5)C3)C4)n(CCO)c2C)ccc1F [Example 73, N-(4-fluoro-3-methylphenyl)-5-(2-(((1r,3s,5R,7S)-3-hydroxyadamantan-1-yl)amino)-2-oxoacetyl)-1-(2-hydroxyethyl)-2,4-dimethyl-1H-pyrrole-3-carboxamide]	> 1000 nM	> 30 µM
Cc1cc(NC(=O)c2c(C)c(C(=O)C(=O)NC3(C(=O)NC(C)(C)CO)CCOCC3)n(C)c2C)ccc1F [Example 681, N-(4-fluoro-3-methylphenyl)-5-(2-((4-((1-hydroxy-2-methylpropan-2-yl)carbamoyl)tetrahydro-2H-pyran-4-yl)amino)-2-oxoacetyl)-1,2,4-trimethyl-1H-pyrrole-3-carboxamide]	< 50 nM	> 30 µM
Cc1c(C(=O)Nc2cc(F)c(F)c(F)c2)c(C)n(C)c1C(=O)C(=O)Nc1ccc(F)c(F)c1 [Example 322, 5-(2-((3,4-difluorophenyl)amino)-2-oxoacetyl)-1,2,4-trimethyl-N-(3,4,5-trifluorophenyl)-1H-pyrrole-3-carboxamide]	< 50 nM	5 to 30 µM
COc1c(C(=O)Nc2ccc(F)c(F)c2)c(C)n(C)c1C(=O)C(=O)NC(C)(C)CO [Example 381, N-(3,4-difluorophenyl)-5-(2-((1-hydroxy-2-methylpropan-2-yl)amino)-2-oxoacetyl)-4-methoxy-1,2-dimethyl-1H-pyrrole-3-carboxamide]	50 to 499 nM	> 30 µM
Cc1cc(NC(=O)c2c(C)c(C(=O)C(=O)N[C@H](CO)C(C)(C)C)n(C)c2C)ccc1F [Example 67, (S)—N-(4-fluoro-3-methylphenyl)-5-(2-((1-hydroxy-3,3-dimethylbutan-2-yl)amino)-2-oxoacetyl)-1,2,4-trimethyl-1H-pyrrole-3-carboxamide]	< 50 nM	> 30 µM
CC[C@H](C)NC(=O)C(=O)c1c(Cl)c(C(=O)Nc2cnc(F)c(C)c2)c2n1CCC2 [Example 733, (S)-5-(2-(sec-butylamino)-2-oxoacetyl)-6-chloro-N-(6-fluoro-5-methylpyridin-3-yl)-2,3-dihydro-1H-pyrrolizine-7-carboxamide]	< 50 nM	5 to 30 µM
Cc1cc(NC(=O)c2cc(C(=O)C(=O)NC3(C(F)(F)F)CC3)n3c2CCCC3)ccc1F [Example 402, N-(4-fluoro-3-methylphenyl)-3-(2-oxo-2-((1-(trifluoromethyl)cyclopropyl)amino)acetyl)-5,6,7,8-tetrahydroindolizine-1-carboxamide]	50 to 499 nM	> 30 µM
CC(C)(O)CNC(=O)C(=O)c1c(Cl)c(C(=O)Nc2ccc(F)c(F)c2)c2n1CCCC2 [Example 534, 2-chloro-N-(3,4-difluorophenyl)-3-(2-((2-hydroxy-2-methylpropyl)amino)-2-oxoacetyl)-5,6,7,8-tetrahydroindolizine--1 carboxamide]	50 to 499 nM	5 to 30 µM
Cc1cc(NC(=O)c2c(C)c(C(=O)C(=O)NC(C)(C)CCO)n(C)c2C)ccc1F [Example 11, N-(4-fluoro-3-methylphenyl)-5-(2-((4-hydroxy-2-methylbutan-2-yl)amino)-2-oxoacetyl)-1,2,4-trimethyl-1H-pyrrole-3-carboxamide]	< 50 nM	> 30 µM
Cc1cc(NC(=O)c2c(C)c(C(=O)C(=O)Nc3ccn(CCO)n3)n(C)c2C)ccc1F [Example 307, N-(4-fluoro-3-methylphenyl)-5-(2-((1-(2-hydroxyethyl)-1H-pyrazol-3-yl)amino)-2-oxoacetyl)-1,2,4-trimethyl-1H-pyrrole-3-carboxamide]	< 50 nM	> 30 µM
Cc1cc(NC(=O)c2c(C)c(C(=O)C(=O)N[C@H](C)CCO)n(C)c2C)ccc1F [Example 141, (R)-N-(4-fluoro-3-methylphenyl)-5-(2-((4-hydroxybutan-2-yl)amino)-2-oxoacetyl)-1,2,4-trimethyl-1H-pyrrole-3-carboxamide]	< 50 nM	> 30 µM
Cc1cc(NC(=O)c2c(C)c(C(=O)C(=O)NCC(C)(C)CO)n3c2CCCC3)ccc1F [Example 443, N-(4-fluoro-3-methylphenyl)-3-(2-((3-hydroxy-2,2-dimethylpropyl)amino)-2-oxoacetyl)-2-methyl-5,6,7,8-tetreahydroindolizine-1-carboxamide]	< 50 nM	5 to 30 µM
Cc1cc(NC(=O)c2c(C)c(C(=O)C(=O)N3CCC(F)(F)C3)n(C)c2C)cnc1F [Example 192, 5-(2-(3,3-difluoropyrrolidin-1-yl)-2-oxoacetyl)-N-(6-fluoro-5-methylpyridin-3-yl)-1,2,4-trimethyl-1H-pyrrole-3-carboxamide]	500 to 1000 nM	> 30 µM
Nc1ncc(CNC(=O)C(=O)c2c(Cl)c(C(=O)Nc3ccc(F)c(F)c3)c3n2CCC3)s1 [Example 569, 5-(2-(((2-aminothiazol-5-yl)methyl)amino)-2-oxoacetyl)-6-chloro-N-(3,4-difluorophenyl)-2,3-dihydro-1H-pyrrolizine-7-carboxamide]	< 50 nM	> 30 µM
Cc1cc(NC(=O)c2c(C)c(C(=O)C(=O)NC3(CO)CC(F)(F)C3)n(C)c2C)cnc1F [Example 184, 5-(2-((3,3-difluoro-1-(hydroxymethyl)cyclobutyl)amino)-2-oxoacetyl)-N-(6-fluoro-5-methylpyridin-3-yl)-1,2,4-trimethyl-1H-pyrrole-3-carboxamide]	< 50 nM	> 30 µM
Cc1c(C(=O)NC2(C)CCCC2)c2n(c1C(=O)C(=O)NC1(CO)CCC1)CCCC2 [Example 745, 3-(2-((1-(hydroxymethyl)cyclobutyl)amino)-2-oxoacetyl)-2-methyl-N-(1-methylcyclopentyl)-5,6,7,8-tetrahdyroindolizine-1-carboxamide]	50 to 499 nM	> 30 µM
Cc1nc(C2(NC(=O)C(=O)c3c(C)c(C(=O)Nc4ccc(F)c(C)c4)c(C)n3C)CCCC2)no1 [Example 158, N-(4-fluoro-3-methylphenyl)-1,2,4-trimethyl-5-(2-((1-(5-methyl-1,2,4-oxadiazol-3-yl)cyclopentyl)amino)-2-oxoacetyl)-1H-pyrrole--3 carboxamide]	< 50 nM	> 30 µM
Cc1c(C(=O)Nc2cccc(Cl)c2)c(C)n(C)c1C(=O)C(=O)N[C@H]1CC[C@@H](O)CC1 [Example 602, N-(3-chlorophenyl)-5-(2-(((1s,4s)-4-hydroxycyclohexyl)amino)-2-oxoacetyl)-1,2,4-trimethyl-1H-pyrrole-3-carboxamide]	< 50 nM	> 30 µM
Cc1cc(NC(=O)c2c(C)c(C(=O)C(=O)NCc3cnc(N)s3)n(C)c2C)cnc1F [Example 171, 5-(2-(((2-aminothiazol-5-yl)methyl)maino)-2-oxoacetyl)-N-(6-fluoro-5-methylpyridin-3-yl)-1,2,4-trimethyl-1H-pyrrole-3-carboxamide]	< 50 nM	> 30 µM
Cc1cc(NC(=O)c2c(C)c(C(=O)C(=O)NCCc3cccs3)n(C)c2C)ccc1F [Example 347, N-(4-fluoro-3-methylphenyl)-1,2,4-trimethyl-5-(2-oxo-2-((2-(thiophen-2-yl)ethyl)amino)acetyl)-1H-pyrrole-3-carboxamide]	< 50 nM	> 30 µM
Cc1cc(NC(=O)c2c(C)c(C(=O)C(=O)NCc3cnc(N)s3)n3c2CCCC3)cnc1F [Example 473, 3-(2-(((2-aminothiazol-5-yl)methyl)amino)-2-oxoacetyl)-N-(6-ffluoro-5-methylpyridin-3-yl)-2-methyl-5,,6,7,8-tetrahydroindolizine--1 carboxamide]	500 to 1000 nM	> 30 µM
Cc1cc(NC(=O)c2c(C)c(C(=O)C(=O)NCc3csc(N)n3)n(C)c2C)ccc1F [Example 111, 5-(2-(((2-aminothiazol-4-yl)methyl)amino)-2-oxoacetyl)-N-(4-fluoro-3-methylphenyl)-1,2,4-trimethyl-1H-pyrrole-3-carboxamide]	< 50 nM	> 30 µM
Cc1cc(NC(=O)c2c(C)c(C(=O)C(=O)NC(C)(C)C(F)(F)F)n3c2CCCC3)cnc1F [Example 468, N-(6-fluoro-5-methylpyridin-3-yl)-2-methyl-3-(2-oxo-2-((1,1,1-trifluoro-2-methylpropan-2-yl)amino)acetyl)-5,6,7,8-tetrahydroindolizine-1-carboxamide]	50 to 499 nM	> 30 µM
Cc1c(C(=O)Nc2ccc(F)c(F)c2)c(C)n(C)c1C(=O)C(=O)Nc1ccc(F)c(F)c1 [Example 293, N-(3,4-difluorophenyl)-5-(2-((3,4-difluorophenyl)amino)-2-oxoacetyl)-1,2,4-trimethyl-1H-pyrrole-3-carboxamide]	< 50 nM	5 to 30 µM
